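Test compounds were applied to cells in 96-well plates for 48 hours at 5 doses. GI50 is the concentration that inhibits growth by half.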 Calls of active or inactive are those of the source. Rule as the data show it: active = GI50 up to about 1.1 µM and inactive = higher.
Key:
Experiment in all cases: inhibition of tumour cell growth, NCI panel, 48 h
[1] = tested on: MDA-N
[2] = tested on: PC-3
[3] = tested on: MCF7
[4] = tested on: SNB-19
[5] = tested on: OVCAR-5
[6] = tested on: A498
[7] = tested on: SW-620
[8] = tested on: OVCAR-8
[9] = tested on: SK-OV-3
[10] = tested on: DMS-273
[11] = tested on: NCI-H460
[12] = tested on: MOLT-4
[13] = tested on: NCI-H23
[14] = tested on: LXFL 529
[15] = tested on: MDA-MB-231
[16] = tested on: SF-539
[17] = tested on: HOP-62
[18] = tested on: SNB-78
[19] = tested on: T47D
[20] = tested on: RXF 631
[21] = tested on: M14
[22] = tested on: DMS-114
[23] = tested on: Hs-578T
[24] = tested on: 786-0
[25] = tested on: UO-31
[26] = tested on: MDA-MB-435
[27] = tested on: OVCAR-4
[28] = tested on: TK-10
[29] = tested on: ACHN
[30] = tested on: UACC-62
[31] = tested on: LOX IMVI
[32] = tested on: M19-MEL
[33] = tested on: CCRF-CEM
[34] = tested on: SN12C
[35] = tested on: COLO 205
[36] = tested on: A549
[37] = tested on: HCC 2998
[38] = tested on: EKVX
[39] = tested on: HCT-15
[40] = tested on: HCT-116
[41] = tested on: OVCAR-3
[42] = tested on: HL-60
[43] = tested on: BT-549
[44] = tested on: U-251
[45] = tested on: CAKI-1
[46] = tested on: RXF 393
[47] = tested on: SK-MEL-2
[48] = tested on: SK-MEL-28
[49] = tested on: NCI-H226
[50] = tested on: SK-MEL-5
[51] = tested on: SF-295
[52] = tested on: SF-268
[53] = tested on: DLD-1
[54] = tested on: NCI-H522
[55] = tested on: HOP-18
[56] = tested on: SNB-75
[57] = tested on: K562
[58] = tested on: SR
[59] = tested on: HOP-92
[60] = tested on: IGROV-1
[61] = tested on: NCI/ADR-RES
[62] = tested on: RPMI-8226
[63] = tested on: KM-20L2
[64] = tested on: DU-145
[65] = tested on: Malme-3M
[66] = tested on: HT-29
[67] = tested on: KM12
[68] = tested on: UACC-257
[69] = tested on: XF498

Measured: GI50

CC12OOC(c3ccccc31)c1c2ccc2ccccc12 (stereo not drawn)
2.17 µM: [39]
active: [22] 0.885 µM | [27] 0.8 µM | [33] 0.904 µM | [42] 0.334 µM | [45] 0.641 µM | [54] 0.843 µM | [58] 0.807 µM
inactive: [1] 5.53 µM | [2] 5.66 µM | [3] 13.2 µM | [4] 16.7 µM | [5] 19.5 µM | [6] 17.6 µM | [7] 1.95 µM | [8] 6.71 µM | [9] 20 µM | [10] 8.69 µM | [11] 2.26 µM | [12] 1.6 µM | [13] 11.4 µM | [14] 2.04 µM | [15] 12 µM | [16] 8.15 µM | [17] 16.2 µM | [18] 4.11 µM | [19] 1.82 µM | [20] 8.04 µM | [21] 9.23 µM | [23] 18.9 µM | [24] 8.53 µM | [25] 9.55 µM | [26] 6.3 µM | [28] 9.68 µM | [29] 1.73 µM | [30] 8.26 µM | [31] 2.12 µM | [32] 3.13 µM | [34] 15.8 µM | [35] 1.71 µM | [36] 3.73 µM | [37] 5.05 µM | [38] 5.45 µM | [40] 1.73 µM | [41] 2.26 µM | [43] 10.4 µM | [44] 14.7 µM | [46] 1.18 µM | [47] 12.1 µM | [48] 13.8 µM | [49] 18.7 µM | [50] 8.53 µM | [51] 7.11 µM | [52] 11.2 µM | [53] 1.45 µM | [55] 1.86 µM | [56] 8.47 µM | [57] 1.65 µM | [59] 2.44 µM | [60] 1.53 µM | [61] 10 µM | [62] 2.45 µM | [63] 3.66 µM | [64] 18.5 µM | [65] 2.3 µM | [66] 2.62 µM | [67] 2.62 µM | [68] 13.4 µM

O=C(c1ccccc1)N1CCc2c([nH]c3ccccc23)C1
49.1 µM: [39]
inactive: [4] 59.7 µM | [5] > 100 µM | [7] 37.5 µM | [8] 29.5 µM | [9] 85.3 µM | [10] 30.7 µM | [11] 41.7 µM | [12] 24.5 µM | [13] 33.4 µM | [14] 36.4 µM | [16] 76.9 µM | [17] 91.2 µM | [20] > 100 µM | [21] 34 µM | [22] 20.4 µM | [24] 54.7 µM | [25] 22.5 µM | [27] 53 µM | [28] 44.3 µM | [29] 36.9 µM | [30] 51.4 µM | [31] 88.1 µM | [69] 20.8 µM | [32] 36.8 µM | [33] 44.6 µM | [34] 34 µM | [35] 19.2 µM | [36] 50.4 µM | [37] 94.4 µM | [38] 44.6 µM | [40] 38 µM | [41] 38 µM | [42] 15.7 µM | [44] 16.4 µM | [45] 28.4 µM | [47] 27.1 µM | [48] 24.8 µM | [49] 51.8 µM | [50] 20.9 µM | [51] 36.6 µM | [53] 64.7 µM | [54] 22 µM | [55] 52.6 µM | [56] 66.8 µM | [57] 45.4 µM | [58] 33.1 µM | [59] 48.6 µM | [60] 52.2 µM | [62] 23.5 µM | [63] 54.1 µM | [65] 35.8 µM | [66] 72.4 µM | [67] 48.8 µM | [68] 28.7 µM
